Assay results from article PMC7083851, “Extended pharmacodynamic responses observed upon PROTAC-mediated degradation of RIPK2” (Communications Biology, 2020).
Several values for one entry are separate records, joined by “and”; a condition that tells them apart may be missing. Identical values can stand only once. Like-named read-outs stand apart in the source and are kept apart here.

Experiments:
MDP-induced TNFα release = MDP-induced TNFα release in human whole blood; format: cell-based; conditions: inhibition of MDP-induced TNFα release
Procedure: (§1) Before treatment with compound or vehicle, THP1 cells, human and rat PBMCs were counted using Vi-Cell cell counter (Invitrogen) and adjusted to a final cell density of […] using complete growth medium. Cells or whole blood were treated with vehicle (0.1% DMSO) or fixed concentrations of compound up to 1 μM in half log unit increments and incubated for the time period indicated in the figure.
Where the assessment of cytokines was performed, L18-MDP was added to the cell culture media (1 μg/ml) or to the rat blood samples (100 ng/ml) and samples were incubated for up to 4 h. […]
Cytokine measurement assay: Cytokine levels were measured in rat plasma or rat PBMCs cell culture supernatants using rat V-Plex TNFα, in human plasma or human PBMCs cell culture supernatants with either TNFα tissue culture or 7-plex kit. Rat serum and tissues samples from the in vivo L18-MDP acute inflammation model were analyzed using the rat TNFα, Il-6 and IL-8 U-Plex kits. […] Levels of cytokines spontaneously released from human colon biopsies cell culture supernatants were measured using Human IL-1 beta/IL-1F2 DuoSet ELISA (Bio-techne), Human IL-6 ELISA (Immunotools) and Human TNF-alpha DuoSet ELISA (Bio-techne). […] The MSD plates were analyzed using the MSD sector imager 6000 plate reader and cytokines concentration (pg/ml) was obtained by using the MSD DISCOVERY WORKBENCH software version 4.0.12.1 […]

Hepatocyte CLint, human = format: in vitro ADME; conditions: human liver hepatocytes
Procedure: Metabolic stability was performed at Cyprotex (UK). Pooled liver microsomes / cryopreserved pooled hepatocytes were purchased from a commercial supplier (BD Biosciences or Corning/InVitro Technologies).
The final incubation volume was 500 µL. An appropriate vehicle control was used. Each compound was incubated for 0, 5, 10, 20, 40, and 60 min. The control (vehicle) was incubated for 60 min.
All incubations were terminated by transferring 50 μL of incubate to 100 μL of acetonitrile containing internal standard at the appropriate time points. The termination plates were centrifuged at 2500 rpm for 20–30min at 4 °C to precipitate the protein. Following protein precipitation, samples were analysed using quantitative LC-MS/MS.

[1] = tested on: L18-MDP-induced TNFα release; test: L18-MDP-induced cytokine release (TNFα, IL1β, IL-6, IL-8, IL-10) in human PBMCs; format: cell-based; conditions: for IC50: Homo sapiens, PBMC
Procedure: PBMCs were isolated from leukodepletion filter from platelet aphaeresis supplied by National Health System Blood and Transplant—NHSBT Apheresed at NHBST.
as §1
Where the assessment of cytokines was performed, L18-MDP was added to the cell culture media (1 μg/ml) or to the rat blood samples (100 ng/ml) and samples were incubated for up to 4 h. […] Samples were them spun down at 1000 g and the cell culture supernatant, plasma or serum were collected for cytokines assessment, while cell pellets were used for RIPK2 and/or cIAP1, cIAP2, and XIAP levels analysis via immunoblotting.
(§2) Cytokine measurement assay: Cytokine levels were measured in rat plasma or rat PBMCs cell culture supernatants using rat V-Plex TNFα, in human plasma or human PBMCs cell culture supernatants with either TNFα tissue culture or 7-plex kit. Rat serum and tissues samples from the in vivo L18-MDP acute inflammation model were analyzed using the rat TNFα, Il-6 and IL-8 U-Plex kits. All kits provided by Meso Scale Discovery (MSD). Levels of cytokines spontaneously released from human colon biopsies cell culture supernatants were measured using Human IL-1 beta/IL-1F2 DuoSet ELISA (Bio-techne), Human IL-6 ELISA (Immunotools) and Human TNF-alpha DuoSet ELISA (Bio-techne). All samples were processed accordingly to the manufacturer’s instructions. The MSD plates were analyzed using the MSD sector imager 6000 plate reader and cytokines concentration (pg/ml) was obtained by using the MSD DISCOVERY WORKBENCH software version 4.0.12.1
In vitro experimental data were analyzed using a 4-parameter logistic equation in GraphPad Prism 5.0.4. to generate an estimate of the half-maximal concentration and maximal degradation, DC50 and Dmax value respectively, for concentration-degradation relationships. Cytokine levels were analyzed in a similar manner to yield IC50 and Imax values. […] Where analysis to a sigmoidal relationship was not possible, the data points are shown as mean ± s.e.m.

XIAP = target: T1, XIAP (Homo sapiens, UniProt P98170); test: XIAP levels in human PBMCs, 24 h, capillary immunoassay; format: cell-based; conditions: up to 1uM
T1 construct: endogenous in cells; host or cells: primary human PBMCs
Procedure: Where the assessment of cytokines was performed, L18-MDP was added to the cell culture media (1 μg/ml) or to the rat blood samples (100 ng/ml) and samples were incubated for up to 4 h. For human blood, 250 ng/ml MDP (Invivogen) was added following compound treatment and the samples were further incubated for 5 h. Samples were them spun down at 1000 g and the cell culture supernatant, plasma or serum were collected for cytokines assessment, while cell pellets were used for RIPK2 and/or cIAP1, cIAP2, and XIAP levels analysis via immunoblotting.
Simple Western immunoassay: Cell lysates were mixed with 5× concentrated master mix (Protein Simple) and denatured at 95 °C on a heat block for 5 min together with the provided ladder (Protein Simple). Antibodies were diluted in the provided buffer as following: anti-RIPK2 (1:10 or 1:50), anti-cIAP1(1:10), anti-cIAP2 (1:10), anti-XIAP (1:10), mouse anti-β-actin (Abcam - 1:1000), rabbit anti-β-actin (Abcam - 1:50) and anti-vinculin (1:100). […] All samples were analyzed using the associated Compass software 3.1.7. […]
Cell viability was assessed by using Cell Titer
Kit (Promega) according to the manufacturer’s instructions. Samples were analysed using […]

[2] = tested on: L18-MDP-induced cytokine release; test: In vivo L18-MDP acute inflammation model, spleen cytokines; parameters: species or system rat; cytokine level (fig 6d) / cytokine level (fig 6e) / cytokine level (fig 6f): unit not given here; conditions: for cytokine level (fig 6e) / cytokine level (fig 6f) / cytokine level (fig 6d): spleen, individual rats, beside L18-MDP control
Procedure: In vivo L18-MDP administration to rodents results in an acute inflammatory response characterised by the rapid production of inflammatory cytokines. […]. […]. Blood concentrations of 6 and 7 tracked closely and dropped below the LLQ after 24 h.
. Cytokine levels were determined in serum generated from the terminal blood samples and in tissue lysates as detailed below.
as §2
For in vivo studies, RIPK2:tubulin ratios and cytokine levels from each individual experiment were analysed either using a One-way ANOVA with Dunnet’s post-test or a two way ANOVA using GraphPad Prism 5.0.4 to determine statistical significance with 95% confidence levels.

Caspases 3 and 7 = test: Caspase 3/7 activation in human PBMCs (Caspase-Glo 3/7), 24 h

T1 sequence (P98170 whole entry): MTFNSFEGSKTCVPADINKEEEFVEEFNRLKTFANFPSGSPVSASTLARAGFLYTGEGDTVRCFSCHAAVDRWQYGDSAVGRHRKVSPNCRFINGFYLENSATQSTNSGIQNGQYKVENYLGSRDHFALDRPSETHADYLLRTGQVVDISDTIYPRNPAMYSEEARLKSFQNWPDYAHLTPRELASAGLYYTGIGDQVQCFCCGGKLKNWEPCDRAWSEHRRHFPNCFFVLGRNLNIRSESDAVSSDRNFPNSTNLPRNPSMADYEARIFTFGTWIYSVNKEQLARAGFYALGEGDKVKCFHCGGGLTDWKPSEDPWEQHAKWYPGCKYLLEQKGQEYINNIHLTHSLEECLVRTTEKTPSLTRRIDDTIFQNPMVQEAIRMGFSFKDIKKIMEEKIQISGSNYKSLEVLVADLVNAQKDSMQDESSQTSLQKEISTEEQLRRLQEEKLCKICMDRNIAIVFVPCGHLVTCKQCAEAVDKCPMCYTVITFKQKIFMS

In the case of `CN[C@@H](C)C(=O)N[C@H](C(=O)N1CCC[C@H]1c1nc(C(=O)c2ccc(F)cc2)cs1)C1CCN(C(=O)c2cnc(N3CCN(CCOc4cc5ncnc(Nc6n[nH]c(C)c6C)c5cc4S(=O)(=O)C(C)(C)C)CC3)nc2)CC1` [PROTAC 4], the “hWB MDP pIC50 ± SEM (n)” value (MDP-induced TNFα release) is reported as 7.7 ± 0.05 (4), the clearance in hepatocytes (Hepatocyte CLint, human) is reported as under 0.45 mL/min/g liver and the “hPBMC MDP pIC50 ± SEM, 6 h (n = 3)” value ([1]; L18-MDP-induced TNFα release, human PBMCs, 6 h) is reported as 8.0 ± 0.5.
Work on `CN[C@@H](C)C(=O)N[C@H](C(=O)N1C[C@@H](NC(=O)c2cnc(N3CCN(CCCOc4cc5ncnc(Nc6n[nH]c(C)c6C)c5cc4S(=O)(=O)C(C)(C)C)CC3)cn2)C[C@H]1C(=O)Nc1c(F)cccc1F)C(C)(C)C` [PROTAC 6] yielded an IC50 ([1]; 6 h, read-out: hPBMC MDP pIC50 ± SEM, 6 h (n = 3) (converted)) of 0.501 nM, an IC50 ([1]; read-out: pIC50 IL1β release following L18-MDP-stimulation (converted)) of under 1.58 nM and an IC50 ([1]; read-out: pIC50 IL-6 release following L18-MDP-stimulation (converted)) of under 1.58 nM. For the same molecule, the IC50 ([1]; read-out: pIC50 IL-10 release following L18-MDP-stimulation (converted)) was under 1.58 nM, the IC50 ([1]; read-out: pIC50 TNFα release following L18-MDP-stimulation (converted)) was under 1.58 nM and the “change in XIAP protein levels, in words” value (XIAP) was “no change in protein levels”. For the same molecule, the “inhibition of TNFα and IL-8 in spleen, in words” value ([2]; rat, 0.3 mg/kg SC, intravenous L18-MDP challenge) was “short-lived and returned to basal levels by the third day post-dose”, the “cytokine level (fig 6e)” value ([2]; time 6 h) was 14.13 and 34.14 and 14.02 and 19.73 and 14.97 and the “cytokine level (fig 6f)” value ([2]; time 6 h) was 4.45 and 4.35 and 4.34 and 3.21 and 3.53. For the same molecule, the “cytokine level (fig 6d)” value ([2]; time 6 h) was 2.77 (2×) and 3.58 and 3.26 and 3.28, the “cytokine level (fig 6e)” value ([2]; time 24 h) was 45.7 and 38.46 and 58.3 and 40.91 and 52.98 and the “cytokine level (fig 6f)” value ([2]; time 24 h) was 4.32 and 2.78 and 5.01 and 2.54 and 9.72. For the same molecule, the “cytokine level (fig 6d)” value ([2]; time 24 h) was 4.43 and 2.62 and 4.18 and 4.64 and 5.01, the “cytokine level (fig 6e)” value ([2]; time 72 h) was 111.22 and 59.85 and 73.1 and 99 and 52.1 and the “cytokine level (fig 6f)” value ([2]; time 72 h) was 75.27 and 51.34 and 57.62 and 94.65 and 61.7. The “cytokine level (fig 6d)” value ([2]; time 72 h) was 45 and 42.87 and 29.6 and 47.75 and 33.69, the “cytokine level (fig 6e)” value ([2]; time 240 h) was 97.65 and 76.46 and 96.01 and 80.21 and 59.48 and the “cytokine level (fig 6f)” value ([2]; time 240 h) was 72.27 and 99.15 and 93.27 and 64.45 and 48.45. For the same molecule, the “cytokine level (fig 6d)” value ([2]; time 240 h) was 65.15 and 73.34 and 58.46 and 1.72 and 47.46, the “cytokine level (fig 6e)” value ([2]; time 408 h) was 146.67 and 133.23 and 180.63 and 211.01 and 68.17 and the “cytokine level (fig 6f)” value ([2]; time 408 h) was 79.92 and 69.55 and 103.81 and 98.05 and 47.92. The “cytokine level (fig 6d)” value ([2]; time 408 h) was 41.62 and 64.64 and 76.25 and 77.33 and 37.06 and the “effect on caspases 3/7 activation, in words” value (Caspases 3 and 7) was “no”.
